# Test system: diabetic Zucker (fa/fa) rats
# Assay: Glutaminyl thiazolidine and Metformin alone or in combination, glycemic control in diabetic Zucker (fa/fa) rats
# Format: in vivo, rat
# Conditions: b.i.d. oral; for reactive and absolute G-AUC: p<0.05 vs. Control; for glucose tolerance curve in the OGTT: vs. Control
# Description: Ten or eleven weeks old male Zucker (fa/fa) rats were purchased from Charles River (Sulzfeld, Germany). Animals were kept under standardized semi-barrier conditions with controlled temperature (22±2° C.) on a 12/12 hours light/dark cycle (light on at 06:00 a.m.). Standard pelleted chow (ssniff®, Soest, Germany) and tap water acidified with HCl were allowed ad libitum. At the age of 12 weeks the animals (N=42) were divided in random order into six experimental groups to be medicated. Definition of the Experimental Groups for the Medications (GT=glutaminyl thiazolidine):
# The single or combined doses per kg b.w. were solved in 5 mL dist. water for oral administration.
# The study was started with the 12 to 13 weeks old Zucker (fa/fa) rats. At the beginning of the study an OGTT was performed (2 g glucose/kg body weight (b.w.); administration volume: 5 mL/kg of a 40% solution; B. Braun Melsungen, Melsungen, Germany) after a 16 h fast. […] Dosing was performed at t=5 min before OGTT by gavage.
# Blood samples were taken from tail veins to measure blood glucose and serum insulin at −15, ±0 min, 15, 30, 60, 90, 120 and 180 min (the latter time without insulin samples) with respect to time of glucose administration.
# After the first OGTT the animals in the groups were dosed twice daily with the respective drugs at 08:00 AM and at 04:00 PM, respectively:
# During the two weeks of medication morning blood glucose was measured before the 08:00 AM medication at Monday, Wednesday and Friday.
# Food intake was determined every day during the time of medication.
# All the animals were weighted three times per week at 7:30 AM.
# A second OGTT was performed after two weeks of medication (Day 15). The food was withdrawn at 04:00 PM the day before (16 h fast). The OGTT was performed with pre-medication at −5 min and oral glucose loading at ±0 min. Blood samples were taken from tail veins to measure blood glucose, and serum insuline at −15, ±0 min, 15, 30, 60, 90, 120 and 180 min (the latter time without insulin samples).
# Glycated hemoglobin was measured before (Day −7) and on Day 18.
# Glucose-For determination of glucose 20 μL blood were collected at −15, ±0 min (before OGTT) and 15, 30, 60, 90, 120 and 180 min post OGTT.
# Insulin-Insulin concentrations were assayed by the antibody RIA method (Linco Research, Inc. St. Charles, Mo., USA).
# Glycated haemoglobin-Percentage of glycated hemoglobin A (HbA1c) was estimated with the “DCA 2000R Hämoglobin A1c-Reagenz kit”(Bayer Vital GmbH, Fernwald, Germany).
# The body weight was measured using a platform balance (Scaltec, Heiligenstadt, Germany).
# Mixed venous blood samples from the tails were collected into 20 μL glass capillaries, which were placed in standard tubes filled with 1 ml solution for hemolysis (blood glucose measurement) and in sample tubes for serum insulin (50 μL blood).
# Raw data of glucose analysis were provided by IDK to probiodrug in Excel format as soon as possible. Data for each drug and each parameter (glucose, insulin) were summarized by descriptive statistics (mean, SEM). […] Changes from baseline were calculated and summarized by descriptive statistic.
# [1] = GT 60 mg/kg b.w. and/or Metformin 125 mg/kg b.w. (Met-low)
# [2] = Metformin 300 mg/kg b.w. (Met-high) with or without GT 60 mg/kg b.w.
smiles,measurement,setting,value
"CN(C)C(=N)N=C(N)N [Metformin, 1,1-Dimethylbiguanidine]",reactive and absolute G-AUC,[1],significantly reduced
same,glucose tolerance curve in the OGTT,[1],significantly improved glucose tolerance curves
same,reactive and absolute G-AUC,[2],once more lowered
same,glucose tolerance curve in the OGTT,[2],further improvement of glucose tolerance curve

# Source: US20060287251A1, “Combination therapy for glycaemic control” (priority 2003, published 2006)
